Legend:
CSM14.1 neuronal cells = test: Rescue of CSM14.1 neurons from thapsigargin-induced cell death (ATPlite cell viability); format: cell-based, rat; conditions: 15 μM thapsigargin for 20 h after 2 h preincubation, TG alone causes ~100% cell death
Excerpt: Ability of compounds to rescue CSM14.1 neurons from thapsigargin-induced cell death. To assess the ability of the compounds to rescue neurons from ER stress-induced cell death, the rat striatal neuroprogenitor cell line CSM14.1 was used. Endoplasmic reticulum (ER) stress has been established as the major cause of neuronal loss in stroke, ischemia, and neurodegeneration (Tajiri, S.; Oyadomari, S.; Yano, S.; Morioka, M.; Gotoh, T.; Hamada, J. I.; Ushio, Y.; Mori, M. Cell Death Differ. 2004, 11, 403-415; Kohno, K.; Higuchi, T.; Ohta, S.; Kumon, Y.; Sakaki, S. Neurosci. Lett. 1997, 224, 17-20; Iadecola, C.; Zhang, F.; Casey, R.; Nagayama, M.; Ross, M. E. J. Neurosci. 1997, 17, 9157-9164). Thus, we used the known ER stress-causing agent thapsigargin (TG) to model the compromised state in vitro. TG causes 100% cell death in most cases, and compounds were assessed for neuroprotection by measuring cell viability when dosed at 10 μM. CSM14.1 cells were recovered from cultures by trypsinization and plated in 96-well plates and incubated overnight at 32° C. 5 μl of test compound was added to achieve a final concentration of […]. Salubrinal and DMSO without compound were used as positive and negative controls, respectively. After 2 h of preincubation, TG-containing DMEM was added to give a final concentration of 15 μM and incubated for an additional 20 h. Cell viability was assessed by a cellular ATP content assay (ATPlite, PerkinElmer Life Sciences).

[1] = system: SUMOylation of His-RanGap (SUMO-E1 (SAE), SUMO-E2 (UBC9), GST-SUMO); test: HTRF assay measuring increase in SUMOylation of His-RanGap; format: biochemical; conditions: His-RanGap substrate; HTRF 665/620 ratio; 70 nl of 2 mM compound in DMSO per well; 30 min at room temperature; triplicate
Procedure: Assay measuring increase in SUMOylation of His-RanGap. We utilized an HTRF assay containing SUMO-E1 (SAE), SUMO-E2 (UBC9), GST-SUMO and His-RanGap, a known SUMO substrate, as well as the respective fluorescent antibodies. The assay was run in 1536-well plate format and the selected activators were chosen based on their ability to increase the FRET signal over a baseline level. In 1536-well white plates, 2 μl of phosphate buffered saline (assay buffer) was dispensed into columns 1 and 2, and 2 μl of Mixture 1 (37.5 nM E1 and 100 nM His-RanGap-1) in assay buffer (50 mM Tris-HCl pH 7.4, 0.3 mM DTT, 10 mM MgCl2, 0.005% Tween-20), was dispensed into columns 3-48. Using a pintool, 70 nl of 2 mM compounds in DMSO was dispensed to columns 5-48 and 70 nl of DMSO was dispensed to columns 1-4. Using the Thermo Scientific MultiDrop Combi, 2 μL of Mixture 2 (20 mM ATP, 12.5 nM E2 and 30 nM GST-SUMO in buffer) was dispensed to all wells and incubated for 30 min. at room temperature followed by 1 μl of 500 mM KF. Plates were read on a PheraStar in a HTRF mode (Ex: 337 nm; Em: 620/665 nm). The ratio of fluorescence 665 over 620 was utilized as a readout of the assay. Increase in SUMOylation was calculated by comparison to baseline level. Measurements were done in triplicate.

BGMK cells = test: Rescue of BGMK cells from thapsigargin-induced cell death (CCK-8 cell viability); format: cell-based; conditions: for % BGMK Cell Viability after treatment in Presence of 10 μM compound: 2 hr pretreatment, TG 24 hrs, TG alone causes ~100% cell death
Excerpt: Ability of compounds to rescue BGMK cells from thapsigargin-induced cell death. To assess an orthogonal cell line and further validate the ability of SUMOylation activators to rescue varied cell types, the compounds were also profiled for cytoprotection in BGMK cells. Again, we used the known ER stress-causing agent thapsigargin (TG) to model the compromised state in vitro. BGMKs were subcultured at 1.2×10^4 cells/ml. Wells treated with compound were done so for 2 hr. […] After treatment, all cells were washed and fed fresh DMEM complete media and CCK-8 development vehicle, incubated for 2 hr, and absorbance was measured to assess viability. Controls were DMSO (0% viability) and Salubrinal (47% viability).

In the case of CC(=O)Nc1ccc(S(=O)(=O)Nc2cccc3cccnc23)cc1 [Compound A1, N-(4-(N-(Quinolin-8-yl)sulfamoyl)phenyl)acetamide], the “% CSM14.1 Cell Viability after treatment with 15 μM TG in Presence of 10 μM compound” value (shortened to “% CSM14.1 Cell Viability after treatment”) (CSM14.1 neuronal cells) is reported as “B (B = 51%-60% viability)”, the “% INCREASE IN SUMOylation over endogenous baseline level” value (“% INCREASE IN SUMOylation” for short) [1] is reported as “B (B = 21%-30% increase)” and the “% BGMK Cell Viability after treatment in Presence of 10 μM compound” value (“% BGMK Cell Viability after treatment” below) (BGMK cells) is reported as “C (C = 51%-60% viability)”.

O=S(=O)(Nc1cccc2cccnc12)c1ccc(S(=O)(=O)N2CCCC2)cc1 [Compound A2, 4-(Pyrrolidin-1-ylsulfonyl)-N-(quinolin-8-yl)benzenesulfonamide] was tested, and the “% CSM14.1 Cell Viability after treatment” value (CSM14.1 neuronal cells) was “C (C = 61%-70% viability of CSM14.1 neurons)”, the “% INCREASE IN SUMOylation” value [1] was “D (D = 40%-50% increase in SUMOylation over baseline levels)” and the “% BGMK Cell Viability after treatment” value (BGMK cells) was “D (D = 61%-70% viability of BGMK cells)”.

With O=S(=O)(Nc1cccc2cccnc12)c1ccccc1 [Compound A3, N-(Quinolin-8-yl)benzenesulfonamide] the “% CSM14.1 Cell Viability after treatment” value (CSM14.1 neuronal cells) was “A (A = 40%-50% viability)”, the “% INCREASE IN SUMOylation” value [1] was “B (B = 21%-30% increase)” and the “% BGMK Cell Viability after treatment” value (BGMK cells) was “A (A = 30%-40% viability)”.

In the case of COc1ccc(NS(=O)(=O)c2ccc3ccccc3c2)c2ncccc12 [Compound A4, N-(5-Methoxy-8-quinolinyl)-2-naphthalenesulfonamide], the “% INCREASE IN SUMOylation” value [1] is reported as “C (C = 31%-40% increase)”.

With O=[N+]([O-])c1ccccc1S(=O)(=O)Nc1cccc2cccnc12 [Compound A5, 2-Nitro-N-(8-quinolinyl)benzenesulfonamide] the “% INCREASE IN SUMOylation” value [1] was “C (C = 31%-40% increase)”.

For Cc1ccc(S(=O)(=O)Nc2cccc3cccnc23)cc1 [Compound A6, 4-Methyl-N-(quinolin-8-yl)benzenesulfonamide], the “% CSM14.1 Cell Viability after treatment” value (CSM14.1 neuronal cells) was “C (C = 61%-70% viability of CSM14.1 neurons)”, the “% INCREASE IN SUMOylation” value [1] was “B (B = 21%-30% increase)” and the “% BGMK Cell Viability after treatment” value (BGMK cells) was “C (C = 51%-60% viability)”.

For Cc1cc(C)n(-c2ccc3cccc(NS(C)(=O)=O)c3n2)n1 [Compound A7, N-[2-(3,5-Dimethyl-1H-pyrazol-1-yl)-8-quinolinyl]methanesulfonamide], the “% INCREASE IN SUMOylation” value [1] was “B (B = 21%-30% increase)”.

CS(=O)(=O)Nc1cccc2cccnc12 [Compound A8, N-(8-Quinolinyl)methanesulfonamide] was tested, and the “% INCREASE IN SUMOylation” value [1] was “B (B = 21%-30% increase)”.

COc1cc(NS(=O)(=O)c2ccc3ccccc3c2)c2ncccc2c1 [Compound A9, N-(6-Methoxy-8-quinolinyl)-2-naphthalenesulfonamide] was tested, and the “% INCREASE IN SUMOylation” value [1] was “B (B = 21%-30% increase)”.

For COc1cc(NS(=O)(=O)c2ccc(C)cc2)c2ncccc2c1 [Compound A10, N-(6-Methoxy-8-quinolinyl)-4-methylbenzenesulfonamide], the “% INCREASE IN SUMOylation” value [1] was “C (C = 31%-40% increase)”.

In the case of O=C(/C=C/c1ccccc1)NC(NC(=S)Nc1cccc2cccnc12)C(Cl)(Cl)Cl (stereo not shown) [Salubrinal, reference compound], the “BGMK cell viability (control)” value (BGMK cells; positive control after thapsigargin injury, DMSO = 0% viability, control concentration not given) is reported as 47%.

Source: patent US11213701B2, “Neuroprotective quinoline sulfonamides” (priority 2018, dated 2022)
